Laboratory results reported in patent EP4722207A1, “OXOISOINDOLINYL-SUBSTITUTED TETRAHYDROPYRIMIDINEDIONE DERIVATIVE AND USE THEREOF” (Gluetacs Therapeutics (Shanghai) Co., Ltd., priority 2023, dated 2024).

Columns and labels:
Format in all cases: cell-based
WEE1 = biological target: T1, WEE1 (Homo sapiens, UniProt P30291+Q96SW2); assay: Western-blot assay, substrate protein degradation in hPBMCs: WEE1; details: for WEE1 substrate protein remaining %: compounds at 50 nM and 500 nM, 24 hours; for substrate protein remaining % WEE1: 24 hours of compound treatment, 50 nM and 500 nM
T1 construct: effects of the compounds of the present disclosure on the expression of target proteins in cells; endogenous in cells; host or cells: human PBMCs (hPBMCs)
T1 sequence (P30291 whole entry): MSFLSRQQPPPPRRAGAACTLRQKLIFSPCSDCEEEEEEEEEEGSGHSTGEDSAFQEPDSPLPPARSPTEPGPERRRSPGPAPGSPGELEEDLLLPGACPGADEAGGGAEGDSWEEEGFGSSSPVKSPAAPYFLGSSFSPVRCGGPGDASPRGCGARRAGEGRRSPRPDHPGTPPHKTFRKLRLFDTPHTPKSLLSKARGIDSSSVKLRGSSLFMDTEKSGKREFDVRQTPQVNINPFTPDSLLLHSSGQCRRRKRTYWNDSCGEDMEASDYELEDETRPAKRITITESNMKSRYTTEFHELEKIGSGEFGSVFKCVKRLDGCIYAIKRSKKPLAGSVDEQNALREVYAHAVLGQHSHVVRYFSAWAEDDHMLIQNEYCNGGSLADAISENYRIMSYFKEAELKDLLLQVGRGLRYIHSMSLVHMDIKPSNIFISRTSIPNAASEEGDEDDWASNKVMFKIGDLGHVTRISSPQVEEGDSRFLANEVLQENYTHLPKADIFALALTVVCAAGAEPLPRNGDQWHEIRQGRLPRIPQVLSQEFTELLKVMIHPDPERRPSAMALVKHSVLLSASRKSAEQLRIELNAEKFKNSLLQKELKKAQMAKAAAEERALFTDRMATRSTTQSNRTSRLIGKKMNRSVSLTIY
T1 sequence (Q96SW2 whole entry): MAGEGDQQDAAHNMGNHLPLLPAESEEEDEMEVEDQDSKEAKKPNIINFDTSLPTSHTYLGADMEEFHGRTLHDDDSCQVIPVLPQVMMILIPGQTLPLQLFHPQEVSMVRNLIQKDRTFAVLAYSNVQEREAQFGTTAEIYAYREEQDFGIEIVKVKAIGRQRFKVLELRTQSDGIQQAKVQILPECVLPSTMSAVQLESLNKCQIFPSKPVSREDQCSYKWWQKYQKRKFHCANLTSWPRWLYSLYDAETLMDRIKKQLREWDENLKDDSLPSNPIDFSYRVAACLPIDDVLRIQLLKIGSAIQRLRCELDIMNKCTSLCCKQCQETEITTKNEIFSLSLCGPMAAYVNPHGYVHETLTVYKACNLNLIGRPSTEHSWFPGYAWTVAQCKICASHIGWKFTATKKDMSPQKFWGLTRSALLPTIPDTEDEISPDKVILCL
T1 sequence (Q16531 whole entry partner): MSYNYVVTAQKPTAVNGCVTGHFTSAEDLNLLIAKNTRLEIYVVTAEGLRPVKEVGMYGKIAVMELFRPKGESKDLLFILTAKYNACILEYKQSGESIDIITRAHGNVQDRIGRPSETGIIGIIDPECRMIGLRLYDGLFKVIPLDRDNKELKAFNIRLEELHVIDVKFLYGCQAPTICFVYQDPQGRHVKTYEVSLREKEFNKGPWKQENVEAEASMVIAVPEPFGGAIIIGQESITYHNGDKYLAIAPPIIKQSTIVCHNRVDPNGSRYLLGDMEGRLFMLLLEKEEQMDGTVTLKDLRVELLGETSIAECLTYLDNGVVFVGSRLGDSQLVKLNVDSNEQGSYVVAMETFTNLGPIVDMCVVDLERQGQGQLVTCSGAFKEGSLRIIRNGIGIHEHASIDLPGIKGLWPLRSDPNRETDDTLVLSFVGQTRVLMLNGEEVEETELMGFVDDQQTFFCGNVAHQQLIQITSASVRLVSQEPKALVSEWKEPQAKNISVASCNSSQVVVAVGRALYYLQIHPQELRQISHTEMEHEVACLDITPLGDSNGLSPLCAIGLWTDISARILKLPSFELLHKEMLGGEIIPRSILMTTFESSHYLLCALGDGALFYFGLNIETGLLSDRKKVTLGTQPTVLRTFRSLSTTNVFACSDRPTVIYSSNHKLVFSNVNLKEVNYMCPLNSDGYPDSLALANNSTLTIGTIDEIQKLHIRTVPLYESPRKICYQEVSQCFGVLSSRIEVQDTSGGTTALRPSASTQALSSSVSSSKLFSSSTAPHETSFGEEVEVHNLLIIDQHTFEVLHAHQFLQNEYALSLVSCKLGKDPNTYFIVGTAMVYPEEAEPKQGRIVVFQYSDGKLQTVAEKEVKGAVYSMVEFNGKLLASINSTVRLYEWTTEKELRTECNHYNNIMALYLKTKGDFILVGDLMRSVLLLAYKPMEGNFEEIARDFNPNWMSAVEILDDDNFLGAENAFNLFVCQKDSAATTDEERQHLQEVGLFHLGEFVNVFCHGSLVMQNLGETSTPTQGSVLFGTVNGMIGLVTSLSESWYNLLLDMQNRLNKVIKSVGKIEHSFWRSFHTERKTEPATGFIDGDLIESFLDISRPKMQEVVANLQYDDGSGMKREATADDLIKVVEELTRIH

IKZF2 = biological target: T2, IKZF2 (Homo sapiens, UniProt Q96SW2+Q9UKS7); assay: Western-blot assay, substrate protein degradation in hPBMCs: IKZF2; details: for IKZF2 substrate protein remaining %: compounds at 50 nM and 500 nM, 24 hours; for substrate protein remaining % IKZF2: 24 hours of compound treatment, 50 nM and 500 nM
T2 construct: effects of the compounds of the present disclosure on the expression of target proteins in cells; endogenous in cells; host or cells: human PBMCs (hPBMCs)

GSPT1 = biological target: T3, GSPT1 (Homo sapiens, UniProt P15170+Q96SW2); assay: Western-blot assay, substrate protein degradation in hPBMCs: GSPT1; details: for GSPT1 substrate protein remaining %: compounds at 50 nM and 500 nM, 24 hours; for substrate protein remaining % GSPT1: 24 hours of compound treatment, 50 nM and 500 nM
T3 construct: effects of the compounds of the present disclosure on the expression of target proteins in cells; endogenous in cells; host or cells: human PBMCs (hPBMCs)
T3 sequence (P15170 whole entry): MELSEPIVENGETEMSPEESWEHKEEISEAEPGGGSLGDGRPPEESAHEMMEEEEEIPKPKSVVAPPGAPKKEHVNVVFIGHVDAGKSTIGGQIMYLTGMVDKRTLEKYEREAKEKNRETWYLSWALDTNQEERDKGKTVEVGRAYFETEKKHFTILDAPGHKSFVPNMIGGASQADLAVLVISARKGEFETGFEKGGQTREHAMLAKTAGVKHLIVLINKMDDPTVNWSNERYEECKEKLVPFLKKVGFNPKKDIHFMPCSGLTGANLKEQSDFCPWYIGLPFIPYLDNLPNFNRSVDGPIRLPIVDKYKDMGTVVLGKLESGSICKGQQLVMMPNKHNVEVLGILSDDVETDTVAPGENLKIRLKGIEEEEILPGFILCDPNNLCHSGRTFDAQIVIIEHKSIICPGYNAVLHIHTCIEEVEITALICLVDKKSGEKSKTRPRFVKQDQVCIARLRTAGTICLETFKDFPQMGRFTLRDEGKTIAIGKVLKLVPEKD
T3 sequence (Q96SW2 whole entry): as the sequence (Q96SW2 whole entry) above
T3 sequence (Q16531 whole entry partner): as the sequence (Q16531 whole entry partner) above

CK1α = biological target: T4, CK1α (Homo sapiens, UniProt P48729+Q96SW2); assay: Western-blot assay, substrate protein degradation in hPBMCs: CK1α; details: for CK1α substrate protein remaining %: compounds at 50 nM and 500 nM, 24 hours; for substrate protein remaining % CK1α: 24 hours of compound treatment, 50 nM and 500 nM
T4 construct: effects of the compounds of the present disclosure on the expression of target proteins in cells; endogenous in cells; host or cells: human PBMCs (hPBMCs)
T4 sequence (P48729 whole entry): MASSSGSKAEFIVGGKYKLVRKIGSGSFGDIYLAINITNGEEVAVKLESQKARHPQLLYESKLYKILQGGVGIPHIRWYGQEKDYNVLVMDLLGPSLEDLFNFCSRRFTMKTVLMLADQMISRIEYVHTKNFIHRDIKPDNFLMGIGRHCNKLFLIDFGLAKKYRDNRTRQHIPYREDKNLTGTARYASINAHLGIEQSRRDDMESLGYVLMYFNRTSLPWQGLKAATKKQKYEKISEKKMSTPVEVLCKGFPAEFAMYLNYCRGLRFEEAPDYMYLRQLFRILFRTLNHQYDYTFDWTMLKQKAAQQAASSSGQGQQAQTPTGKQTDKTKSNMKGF
T4 sequence (Q96SW2 whole entry): as the sequence (Q96SW2 whole entry) above
T4 sequence (Q16531 whole entry partner): as the sequence (Q16531 whole entry partner) above

IKZF1 = biological target: T5, IKZF1 (Homo sapiens, UniProt Q13422+Q96SW2); assay: Western-blot assay, substrate protein degradation in hPBMCs: IKZF1; details: for IKZF1 substrate protein remaining %: compounds at 50 nM and 500 nM, 24 hours; for substrate protein remaining % IKZF1: 24 hours of compound treatment, 50 nM and 500 nM
T5 construct: effects of the compounds of the present disclosure on the expression of target proteins in cells; endogenous in cells; host or cells: human PBMCs (hPBMCs)
T5 sequence (Q13422 whole entry): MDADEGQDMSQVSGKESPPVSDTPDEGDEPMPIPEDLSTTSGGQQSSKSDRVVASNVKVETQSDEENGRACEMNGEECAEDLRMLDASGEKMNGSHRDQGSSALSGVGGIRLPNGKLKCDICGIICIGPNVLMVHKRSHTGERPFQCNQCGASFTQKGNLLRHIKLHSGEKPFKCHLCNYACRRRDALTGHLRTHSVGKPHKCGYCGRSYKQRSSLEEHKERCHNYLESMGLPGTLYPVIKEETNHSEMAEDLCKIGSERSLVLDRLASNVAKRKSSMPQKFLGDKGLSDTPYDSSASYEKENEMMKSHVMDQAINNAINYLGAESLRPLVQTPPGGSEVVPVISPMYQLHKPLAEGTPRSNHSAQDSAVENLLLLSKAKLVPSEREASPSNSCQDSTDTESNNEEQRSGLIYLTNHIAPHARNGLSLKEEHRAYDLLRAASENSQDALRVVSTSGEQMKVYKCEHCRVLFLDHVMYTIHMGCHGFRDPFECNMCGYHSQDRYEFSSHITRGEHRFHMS
T5 sequence (Q96SW2 whole entry): as the sequence (Q96SW2 whole entry) above
T5 sequence (Q16531 whole entry partner): as the sequence (Q16531 whole entry partner) above

IKZF3 = biological target: T6, IKZF3 (Homo sapiens, UniProt Q96SW2+Q9UKT9); assay: Western-blot assay, substrate protein degradation in hPBMCs: IKZF3; details: for IKZF3 substrate protein remaining %: compounds at 50 nM and 500 nM, 24 hours; for substrate protein remaining % IKZF3: 24 hours of compound treatment, 50 nM and 500 nM
T6 construct: effects of the compounds of the present disclosure on the expression of target proteins in cells; endogenous in cells; host or cells: human PBMCs (hPBMCs)
T6 sequence (Q9UKT9 whole entry): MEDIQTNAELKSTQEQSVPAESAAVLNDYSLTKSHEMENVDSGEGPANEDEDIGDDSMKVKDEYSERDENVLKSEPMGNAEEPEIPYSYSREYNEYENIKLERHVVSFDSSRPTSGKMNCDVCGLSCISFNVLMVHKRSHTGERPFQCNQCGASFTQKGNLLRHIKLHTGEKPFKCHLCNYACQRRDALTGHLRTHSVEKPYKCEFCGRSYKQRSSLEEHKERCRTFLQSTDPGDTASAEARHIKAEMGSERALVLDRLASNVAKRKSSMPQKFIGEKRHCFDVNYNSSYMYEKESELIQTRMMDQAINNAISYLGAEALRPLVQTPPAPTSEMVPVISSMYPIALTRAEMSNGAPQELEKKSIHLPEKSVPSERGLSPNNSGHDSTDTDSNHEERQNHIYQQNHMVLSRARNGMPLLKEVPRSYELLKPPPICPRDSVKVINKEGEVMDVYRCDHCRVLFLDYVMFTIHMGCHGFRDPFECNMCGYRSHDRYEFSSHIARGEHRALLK
T6 sequence (Q96SW2 whole entry): as the sequence (Q96SW2 whole entry) above
T6 sequence (Q16531 whole entry partner): as the sequence (Q16531 whole entry partner) above

## O=C1CCN(N2C(=O)c3ccc(CN4CCN(c5ncncn5)CC4)cc3C2=O)C(=O)N1 [GT-07037, 5-((4-(1,3,5-triazin-2-yl)piperazin-1-yl)methyl)-2-(2,4-dioxotetrahydropyrimidin-1(2H)-yl)isoindoline-1,3-dione]
WEE1
  WEE1 substrate protein remaining %: B ("B" is defined as 80%< substrate protein remaining %≤ 100%)
IKZF2
  IKZF2 substrate protein remaining %: B ("B" is defined as 80%< substrate protein remaining %≤ 100%)
GSPT1
  GSPT1 substrate protein remaining %: A ("A" is defined as 0% ≤ substrate protein remaining % ≤ 80%)
CK1α
  CK1α substrate protein remaining %: B ("B" is defined as 80%< substrate protein remaining %≤ 100%)
IKZF1
  IKZF1 substrate protein remaining %: B ("B" is defined as 80%< substrate protein remaining %≤ 100%)
IKZF3
  IKZF3 substrate protein remaining %: B ("B" is defined as 80%< substrate protein remaining %≤ 100%)

## O=C1CCN(N2C(=O)c3ccc(CN4CCC(c5cccs5)CC4)cc3C2=O)C(=O)N1 [GT-07424, 2-(2,4-dioxotetrahydropyrimidin-1(2H)-yl)-5-((4-(thiophen-2-yl)piperidin-1-yl)methyl)isoindoline-1,3-dione]
WEE1
  substrate protein remaining % WEE1: A (0% ≤ substrate protein remaining % ≤ 80%)
IKZF2
  substrate protein remaining % IKZF2: B (80%< substrate protein remaining %≤ 100%)
GSPT1
  substrate protein remaining % GSPT1: A (0% ≤ substrate protein remaining % ≤ 80%)
CK1α
  substrate protein remaining % CK1α: B (80%< substrate protein remaining %≤ 100%)
IKZF1
  substrate protein remaining % IKZF1: A (0% ≤ substrate protein remaining % ≤ 80%)
IKZF3
  substrate protein remaining % IKZF3: A (0% ≤ substrate protein remaining % ≤ 80%)

## O=C1CCN(N2Cc3cc(CN4CCN(c5nsc6ccccc56)CC4)ccc3C2=O)C(=O)N1 [GT-04865, 1-(5-((4-(benzo[d]isothiazol-3-yl)piperazin-1-yl)methyl)-1-oxoisoindolin-2-yl)dihydropyrimidine-2,4(1H,3H)-dione]
WEE1
  WEE1 substrate protein remaining %: B ("B" is defined as 80%< substrate protein remaining %≤ 100%)
IKZF2
  IKZF2 substrate protein remaining %: B ("B" is defined as 80%< substrate protein remaining %≤ 100%)
GSPT1
  GSPT1 substrate protein remaining %: A ("A" is defined as 0% ≤ substrate protein remaining % ≤ 80%)
CK1α
  CK1α substrate protein remaining %: B ("B" is defined as 80%< substrate protein remaining %≤ 100%)
IKZF1
  IKZF1 substrate protein remaining %: A ("A" is defined as 0% ≤ substrate protein remaining % ≤ 80%)
IKZF3
  IKZF3 substrate protein remaining %: B ("B" is defined as 80%< substrate protein remaining %≤ 100%)

## COc1cccc(N2CCN(Cc3ccc4c(c3)C(=O)N(N3CCC(=O)NC3=O)C4=O)CC2)c1 [GT-06721, 2-(2,4-dioxotetrahydropyrimidin-1(2H)-yl)-5-((4-(3-methoxyphenyl)piperazin-1-yl)methyl)isoindoline-1,3-dione]
WEE1
  WEE1 substrate protein remaining %: B ("B" is defined as 80%< substrate protein remaining %≤ 100%)
IKZF2
  IKZF2 substrate protein remaining %: A ("A" is defined as 0% ≤ substrate protein remaining % ≤ 80%)
GSPT1
  GSPT1 substrate protein remaining %: B ("B" is defined as 80%< substrate protein remaining %≤ 100%)
CK1α
  CK1α substrate protein remaining %: B ("B" is defined as 80%< substrate protein remaining %≤ 100%)
IKZF1
  IKZF1 substrate protein remaining %: A ("A" is defined as 0% ≤ substrate protein remaining % ≤ 80%)
IKZF3
  IKZF3 substrate protein remaining %: A ("A" is defined as 0% ≤ substrate protein remaining % ≤ 80%)

## O=C1CCN(N2Cc3cc(CN4CCN(c5ccncc5Br)CC4)ccc3C2=O)C(=O)N1 [GT-05439, 1-(5-((4-(3-bromopyridin-4-yl)piperazin-1-yl)methyl)-1-oxoisoindolin-2-yl)dihydropyrimidine-2,4(1H,3H)-dione]
WEE1
  substrate protein remaining % WEE1: A (0% ≤ substrate protein remaining % ≤ 80%)
  WEE1 substrate protein remaining %: A ("A" is defined as 0% ≤ substrate protein remaining % ≤ 80%)
IKZF2
  substrate protein remaining % IKZF2: B (80%< substrate protein remaining %≤ 100%)
  IKZF2 substrate protein remaining %: B ("B" is defined as 80%< substrate protein remaining %≤ 100%)
GSPT1
  substrate protein remaining % GSPT1: A (0% ≤ substrate protein remaining % ≤ 80%)
  GSPT1 substrate protein remaining %: B ("B" is defined as 80%< substrate protein remaining %≤ 100%)
CK1α
  substrate protein remaining % CK1α: A (0% ≤ substrate protein remaining % ≤ 80%)
  CK1α substrate protein remaining %: B ("B" is defined as 80%< substrate protein remaining %≤ 100%)
IKZF1
  substrate protein remaining % IKZF1: B (80%< substrate protein remaining %≤ 100%)
  IKZF1 substrate protein remaining %: B ("B" is defined as 80%< substrate protein remaining %≤ 100%)
IKZF3
  substrate protein remaining % IKZF3: A (0% ≤ substrate protein remaining % ≤ 80%)
  IKZF3 substrate protein remaining %: B ("B" is defined as 80%< substrate protein remaining %≤ 100%)

## Cc1sc2ncnc(C3=CCN(Cc4ccc5c(c4)C(=O)N(N4CCC(=O)NC4=O)C5=O)CC3)c2c1C [GT-05273, 5-((4-(5,6-dimethylthieno[2,3-d]pyrimidin-4-yl)-3,6-dihydropyridin-1(2H)-yl)methyl)-2-(2,4-dioxotetrahydropyrimidin-1(2H)-yl)isoindoline-1,3-dione]
WEE1
  WEE1 substrate protein remaining %: B ("B" is defined as 80%< substrate protein remaining %≤ 100%)
IKZF2
  IKZF2 substrate protein remaining %: A ("A" is defined as 0% ≤ substrate protein remaining % ≤ 80%)
GSPT1
  GSPT1 substrate protein remaining %: B ("B" is defined as 80%< substrate protein remaining %≤ 100%)
CK1α
  CK1α substrate protein remaining %: B ("B" is defined as 80%< substrate protein remaining %≤ 100%)
IKZF1
  IKZF1 substrate protein remaining %: B ("B" is defined as 80%< substrate protein remaining %≤ 100%)
IKZF3
  IKZF3 substrate protein remaining %: B ("B" is defined as 80%< substrate protein remaining %≤ 100%)

## O=C1CCN(N2C(=O)c3ccc(CN4CCN(c5c(Cl)ccnc5Cl)CC4)cc3C2=O)C(=O)N1 [GT-06973, 5-((4-(2,4-dichloropyridin-3-yl)piperazin-1-yl)methyl)-2-(2,4-dioxotetrahydropyrimidin-1(2H)-yl)isoindoline-1,3-dione]
WEE1
  WEE1 substrate protein remaining %: A ("A" is defined as 0% ≤ substrate protein remaining % ≤ 80%)
IKZF2
  IKZF2 substrate protein remaining %: B ("B" is defined as 80%< substrate protein remaining %≤ 100%)
GSPT1
  GSPT1 substrate protein remaining %: B ("B" is defined as 80%< substrate protein remaining %≤ 100%)
CK1α
  CK1α substrate protein remaining %: B ("B" is defined as 80%< substrate protein remaining %≤ 100%)
IKZF1
  IKZF1 substrate protein remaining %: A ("A" is defined as 0% ≤ substrate protein remaining % ≤ 80%)
IKZF3
  IKZF3 substrate protein remaining %: A ("A" is defined as 0% ≤ substrate protein remaining % ≤ 80%)

## O=C1CCN(N2Cc3cc(CN4CCN(c5noc6cc(F)ccc56)CC4)ccc3C2=O)C(=O)N1 [GT-07496, 1-(5-((4-(6-fluorobenzo[d]isoxazol-3-yl)piperazin-1-yl)methyl)-1-oxoisoindolin-2-yl)dihydropyrimidine-2,4(1H,3H)-dione]
WEE1
  substrate protein remaining % WEE1: B (80%< substrate protein remaining %≤ 100%)
IKZF2
  substrate protein remaining % IKZF2: B (80%< substrate protein remaining %≤ 100%)
GSPT1
  substrate protein remaining % GSPT1: A (0% ≤ substrate protein remaining % ≤ 80%)
CK1α
  substrate protein remaining % CK1α: A (0% ≤ substrate protein remaining % ≤ 80%)
IKZF1
  substrate protein remaining % IKZF1: B (80%< substrate protein remaining %≤ 100%)
IKZF3
  substrate protein remaining % IKZF3: B (80%< substrate protein remaining %≤ 100%)

## O=C1CCN(N2Cc3cc(CN4CCN(c5ccncc5)CC4)ccc3C2=O)C(=O)N1 [GT-05437, 1-(1-oxo-5-((4-(pyridin-4-yl)piperazin-1-yl)methyl)isoindolin-2-yl)dihydropyrimidine-2,4(1H,3H)-dione]
WEE1
  substrate protein remaining % WEE1: B (80%< substrate protein remaining %≤ 100%)
IKZF2
  substrate protein remaining % IKZF2: B (80%< substrate protein remaining %≤ 100%)
GSPT1
  substrate protein remaining % GSPT1: A (0% ≤ substrate protein remaining % ≤ 80%)
CK1α
  substrate protein remaining % CK1α: B (80%< substrate protein remaining %≤ 100%)
IKZF1
  substrate protein remaining % IKZF1: B (80%< substrate protein remaining %≤ 100%)
IKZF3
  substrate protein remaining % IKZF3: B (80%< substrate protein remaining %≤ 100%)

## O=C1CCN(N2Cc3cc(CN4CCN(c5ccncc5F)CC4)ccc3C2=O)C(=O)N1 [GT-05697, 1-(5-((4-(3-fluoropyridin-4-yl)piperazin-1-yl)methyl)-1-oxoisoindolin-2-yl)dihydropyrimidine-2,4(1H,3H)-dione]
WEE1
  WEE1 substrate protein remaining %: A ("A" is defined as 0% ≤ substrate protein remaining % ≤ 80%)
IKZF2
  IKZF2 substrate protein remaining %: B ("B" is defined as 80%< substrate protein remaining %≤ 100%)
GSPT1
  GSPT1 substrate protein remaining %: A ("A" is defined as 0% ≤ substrate protein remaining % ≤ 80%)
CK1α
  CK1α substrate protein remaining %: B ("B" is defined as 80%< substrate protein remaining %≤ 100%)
IKZF1
  IKZF1 substrate protein remaining %: B ("B" is defined as 80%< substrate protein remaining %≤ 100%)
IKZF3
  IKZF3 substrate protein remaining %: B ("B" is defined as 80%< substrate protein remaining %≤ 100%)
